From publication PMC9780499, “Designing double-site lipidated peptide amphiphiles as potent antimicrobial biomaterials to combat multidrug-resistant bacteria” (Frontiers in Microbiology, 2022)
≈ marks a conversion by molar mass, not a printed value. Where two headings read alike, the source gives them in different places. Ends that are not written are not given here. Peptide text beside a SMILES is read from it. * marks the point of attachment. Decanoyl = CCCCCCCCCC(=O)*; Butyryl = CCCC(=O)*

Tests used:
[1] = test system: E. coli HP73; experiment: microbe, parasite or virus in culture; type: cell-based, Escherichia coli; settings: read-out: MICs, E. coli HP73
Text: (§1) Escherichia coli ATCC25922, E. coli UB1005, Pseudomonas aeruginosa ATCC27853, Salmonella typhimurium ATCC14028, S. typhimurium C7731, Staphylococcus aureus ATCC29213, Methicillin-resistant S. aureus (MRSA) ATCC43300, S. epidermidis ATCC12228, and Enterococcus faecalis ATCC29212 were stored by the institute of animal nutrition, Northeast Agricultural University (Harbin, China). Multidrug-Resistant E. coli HP73 and E. coli HP74 were clinically isolated from swine-derived Escherichia coli and stored by the institute of animal nutrition, Northeast Agricultural University (Harbin, China).
(§2) The MICs were determined using a broth microdilution method with reference to Clinical and Laboratory Standards Institute (CLSI) guidelines ([Wiegand et al., 2008]). After a two-fold serial dilution of the peptides (50 μl, dilution buffer: 0.01% acetic acid containing 0.2% BSA) prepared in a 96-well plate, a series of an equal volume of bacterial solution (50 μl) prepared in Mueller-Hinton broth (MHB) were added to the same 96-well plate, and the final bacterial inoculum size in each well of the 96-well plate was approximately 5 × 10^5 CFU/ml. As positive and negative controls, bacteria solution without peptides and blank samples without bacteria were prepared in the same 96-well plate. […] The lowest peptide concentration at which there was no increase in optical density was referred to as the MIC.

[2] = test system: E. coli HP74; experiment: microbe, parasite or virus in culture; type: cell-based, Escherichia coli; settings: read-out: MICs, E. coli HP74
Text: as §1, §2

[3] = test system: E. faecalis 29212; type: cell-based, Enterococcus faecalis; settings: 29212, 20 h
Text: as §1, §2

[4] = test system: MRSA 43300; type: cell-based, Methicillin-resistant S. aureus; settings: 43300, 20 h
Text: as §1, §2

[5] = test system: 9 bacterial strains; experiment: Geometric mean MIC over the 9 bacterial strains; type: cell-based; settings: geometric mean of the 9 strains of Table 1
Description: as §2

[6] = test system: E. coli 25922; type: cell-based, Escherichia coli; settings: 25922, 20 h
Text: as §1, §2

[7] = test system: E. coli UB1005; type: cell-based, Escherichia coli; settings: UB1005, 20 h
Text: as §1, §2

[8] = test system: S. typhimurium 14028; type: cell-based, Salmonella typhimurium; settings: 14028, 20 h
Text: as §1, §2

[9] = test system: S. typhimurium C7731; type: cell-based, Salmonella typhimurium; settings: C7731, 20 h
Text: as §1, §2

[10] = test system: IPEC-J2; experiment: MTT cytotoxicity assay; type: cell-based, porcine; settings: 1 day incubation; for Cytotoxicity toward IPEC-J2: at the test concentrations
Description: (§3) 3-(4,5-dimethylthiozol-2-yl)-2,5-diphenyltetrazolium bromide (MTT) assay and live/dead cell staining assay were conducted to assess the peptide cytotoxicity. For the MTT assay, cell lines were seeded and passaged twice in high-glucose Dulbecco’s modified Eagle’s medium (DMEM, containing 100 μg/ml streptomycin, 100 U/ml penicillin, and 10% vol/vol fetal bovine serum) or Dulbecco’s Modified Eagle Medium/Nutrient Mixture F-12 (DMEM/F-12, containing 100 μg/ml streptomycin, 100 U/ml penicillin, and 10% vol/vol fetal bovine serum) at a 5% CO2 incubator (37°C). The cells (approximately 50,000 cells per well) were cultured in a 96-well plate at a 5% CO2 incubator for 1 day. Then various concentrations of peptide solutions (50 μl) were added to the plate and incubated for another 1 day. The cells solution without peptides and blank samples without cells and peptides were prepared in the same 96-well plate as positive and negative controls, respectively. Subsequently, MTT (0.5 mg/ml, 20 μl per well) was added and the plate was incubated for another 4 h. Removed all supernatant from the plate and added 150 μl of dimethyl sulfoxide. Finally, a microplate reader (Tecan GENios F129004, Austria) was used to record the absorbance data at OD570 nm. Melittin was employed as a control peptide. The cell viability was calculated using the previously described equation ([Lai et al., 2021]).

[11] = test system: S. aureus 29213; type: cell-based, Staphylococcus aureus; settings: 29213, 20 h
Text: as §1, §2

[12] = test system: S. epidermidis 12228; type: cell-based; settings: 12228, 20 h
Text: as §1, §2

[13] = test system: P. aeruginosa 27853; type: cell-based, Pseudomonas aeruginosa; settings: 27853, 20 h
Text: as §1, §2

[14] = test system: HEK293T; experiment: MTT cytotoxicity assay; type: cell-based, human; settings: 1 day incubation; for Cytotoxicity toward HEK293T: at the test concentrations
Description: as §3

[15] = multidrug-resistant, colistin-resistant swine clinical isolate, broth microdilution, MHB, 37°C 20 h

| Compound | MIC ([1]; Escherichia coli, HP73, 20 h) [µM] | MIC ([2]; Escherichia coli, HP74, 20 h) [µM] | MICs, E. faecalis 29212 [3] [µM] | MICs, MRSA 43300 [4] [µM] | GM, geometric mean MICs from the 9 bacterial strains [5] [µM] | MICs, E. coli 25922 [6] [µM] | MICs, E. coli UB1005 [7] [µM] | MICs, S. typhimurium 14028 [8] [µM] | MICs, S. typhimurium C7731 [9] [µM] | Cytotoxicity toward IPEC-J2 [10] | MICs, S. aureus 29213 [11] [µM] | MICs, S. epidermidis 12228 [12] [µM] | MICs, P. aeruginosa 27853 [13] [µM] | Cytotoxicity toward HEK293T [14] | Concentration above which significant cytotoxicity toward IPEC-J2 [10] | Concentration above which significant cytotoxicity toward HEK293T [14] | MIC [1, 15] [µM] | MIC [2, 15] [µM] |
| --- | --- | --- | --- | --- | --- | --- | --- | --- | --- | --- | --- | --- | --- | --- | --- | --- | --- | --- |
| CN[C@H](CC(C)C)C(=O)N[C@H]1C(=O)N[C@@H](CC(N)=O)C(=O)N[C@H]2C(=O)N[C@H]3C(=O)N[C@H](C(=O)N[C@H](C(=O)O)c4cc(O)cc(O)c4-c4cc3ccc4O)[C@H](O)c3ccc(c(Cl)c3)Oc3cc2cc(c3O[C@@H]2O[C@H](CO)[C@@H](O)[C@H](O)[C@H]2O[C@H]2C[C@](C)(N)[C@H](O)[C@H](C)O2)Oc2ccc(cc2Cl)[C@H]1O [Vancomycin] | 64 (≈ 92.8 µg/mL) | 32 (≈ 46.4 µg/mL) | – | – | – | – | – | – | – | – | – | – | – | – | – | – | – | – |
| CCCC(=O)NCCCC[C@H](NC(=O)[C@H](CC(C)C)NC(=O)[C@H](CCCCN)NC(=O)[C@H](CCCCN)NC(=O)[C@H](CC(C)C)NC(=O)[C@H](CCCCNC(=O)CCC)NC(=O)[C@H](CCCCN)NC(=O)[C@H](CCCCN)NC(=O)[C@H](CC(C)C)NC(=O)[C@H](CCCCN)NC(=O)[C@H](CCCCN)NC(=O)[C@H](CC(C)C)NC(=O)[C@@H](N)Cc1c[nH]c2ccccc12)C(=O)N[C@@H](CCCCN)C(=O)N[C@@H](CCCCN)C(=O)O [WL-C4] (H-WLKKLKKK(Butyryl)LKKLK(Butyryl)KK-OH) | – | – | 32 | 16 | 8.00 | 8 | 4 | 4 | 4 | no significant cytotoxicity | 16 | 16 | 2 | no significant cytotoxicity | – | – | – | – |
| CCCCCCCCCC(=O)NCCCC[C@H](NC(=O)[C@H](CC(C)C)NC(=O)[C@H](CCCCN)NC(=O)[C@H](CCCCN)NC(=O)[C@H](CC(C)C)NC(=O)[C@H](CCCCNC(=O)CCCCCCCCC)NC(=O)[C@H](CCCCN)NC(=O)[C@H](CCCCN)NC(=O)[C@H](CC(C)C)NC(=O)[C@H](CCCCN)NC(=O)[C@H](CCCCN)NC(=O)[C@H](CC(C)C)NC(=O)[C@@H](N)Cc1c[nH]c2ccccc12)C(=O)N[C@@H](CCCCN)C(=O)N[C@@H](CCCCN)C(=O)O [WL-C10] (H-WLKKLKKK(Decanoyl)LKKLK(Decanoyl)KK-OH) | – | – | >128 | >128 | 94.06 | >64 | 16 | >128 | >128 | – | >128 | >128 | >128 | – | greater than 32 μM | greater than 32 μM | – | – |
| Colistin | – | – | – | – | – | – | – | – | – | – | – | – | – | – | – | – | 4 | 4 |
| Kanamycin A | – | – | – | – | – | – | – | – | – | – | – | – | – | – | – | – | >128 | >128 |
| Polymyxin B | – | – | – | – | – | – | – | – | – | – | – | – | – | – | – | – | 8 | 4 |
| WLKKLKKK(Ac)LKKLK(Ac)KK [WL-C2] | – | – | 128 | 64 | 27.43 | 8 | 8 | 16 | 16 | no significant cytotoxicity | 64 | 64 | 16 | no significant cytotoxicity | – | – | – | – |
| WLKKLKKKLKKLKKK [WL] | – | – | >128 | 128 | 64.00 | 32 | 32 | 32 | 32 | no significant cytotoxicity | 128 | 128 | 32 | no significant cytotoxicity | – | – | – | – |
